Assay results: the supplement of paper PMC13380429

What was measured:
Details in all cases: 72 h
U2OS [1] = assay: relative viability EC50 (midpoint between 100% and the lowest measured viability); higher = less toxic
Vero E6 [2] = assay: as above
Caco-2 [3] = assay: as above
Calu-3 [4] = assay: as above
HepG2 [5] = assay: as above
U2OS [6] = assay: cell viability relative to DMSO; higher = less toxic
Vero E6 [7] = assay: as above
Caco-2 [8] = assay: as above
Calu-3 [9] = assay: as above
HepG2 [10] = assay: as above
U2OS [11] = assay: drug sensitivity score (DSS) for viability; higher = more toxic; extreme values may be limits of the assay
Vero E6 [12] = assay: as above
Caco-2 [13] = assay: as above
Calu-3 [14] = assay: as above
HepG2 [15] = assay: as above

Row | Compound | relative viability EC50 (U2OS [1]) [µM] | relative viability EC50 (Vero E6 [2]) [µM] | relative viability EC50 (Caco-2 [3]) [µM] | relative viability EC50 (Calu-3 [4]) [µM] | relative viability EC50 (HepG2 [5]) [µM] | cell viability (U2OS [6]; 1 nM) [%] | cell viability (U2OS [6]; 10 nM) [%] | cell viability (U2OS [6]; 100 nM) [%] | cell viability (U2OS [6]; 1000 nM) [%] | cell viability (U2OS [6]; 10000 nM) [%] | cell viability (Vero E6 [7]; 1 nM) [%] | cell viability (Vero E6 [7]; 10 nM) [%] | cell viability (Vero E6 [7]; 100 nM) [%] | cell viability (Vero E6 [7]; 1000 nM) [%] | cell viability (Vero E6 [7]; 10000 nM) [%] | cell viability (Caco-2 [8]; 1 nM) [%] | cell viability (Caco-2 [8]; 10 nM) [%] | cell viability (Caco-2 [8]; 100 nM) [%] | cell viability (Caco-2 [8]; 1000 nM) [%] | cell viability (Caco-2 [8]; 10000 nM) [%] | cell viability (Calu-3 [9]; 1 nM) [%] | cell viability (Calu-3 [9]; 10 nM) [%] | cell viability (Calu-3 [9]; 100 nM) [%] | cell viability (Calu-3 [9]; 1000 nM) [%] | cell viability (Calu-3 [9]; 10000 nM) [%] | cell viability (HepG2 [10]; 1 nM) [%] | cell viability (HepG2 [10]; 10 nM) [%] | cell viability (HepG2 [10]; 100 nM) [%] | cell viability (HepG2 [10]; 1000 nM) [%] | cell viability (HepG2 [10]; 10000 nM) [%] | drug sensitivity score (U2OS [11]) | drug sensitivity score (Vero E6 [12]) | drug sensitivity score (Caco-2 [13]) | drug sensitivity score (Calu-3 [14]) | drug sensitivity score (HepG2 [15])
1 | CCN[C@H]1CN(CCCOC)S(=O)(=O)c2sc(S(N)(=O)=O)cc21 [brinzolamide] | > 10 | > 10 | > 10 | > 10 | > 10 | 96.6 | 95.4 | 102 | 106 | 99.9 | 94.4 | 99.7 | 96.2 | 85.9 | 102 | 89.1 | 95.2 | 99.3 | 104 | 106 | 96.2 | 91.8 | 101 | 112 | 102 | 100 | 118 | 101 | 110 | 112 | 0 | 0 | 0 | 0 | 0
2 | Oc1ccc(Cl)c2cccnc12 [cloxyquin] | > 10 | > 10 | > 10 | > 10 | > 10 | 94.4 | 99.3 | 99.4 | 99.8 | 97.4 | 99.7 | 105 | 99.9 | 101 | 97.7 | 96.1 | 98.1 | 104 | 96.9 | 95 | 87.9 | 100 | 96 | 106 | 105 | 102 | 98.9 | 116 | 93.4 | 88.2 | 0 | 0 | 0 | 0 | 0.3
3 | C=CCN1CC[C@]23CCCC[C@H]2[C@H]1Cc1ccc(O)cc13 [levallorphan] | > 10 | > 10 | > 10 | > 10 | > 10 | 98.6 | 93.8 | 97.3 | 102 | 103 | 101 | 103 | 99.3 | 105 | 101 | 94.6 | 105 | 108 | 95.6 | 104 | 108 | 97 | 99.8 | 101 | 104 | 102 | 105 | 94.2 | 98.9 | 88.8 | 0 | 0 | 0 | 0 | 0
4 | Cc1c(Cl)cccc1Nc1ccccc1C(=O)O [tolfenamic-acid] | > 10 | > 10 | > 10 | > 10 | > 10 | 98.9 | 95 | 101 | 101 | 98.8 | 98.1 | 103 | 90.4 | 98.8 | 101 | 95.7 | 99 | 102 | 96.4 | 107 | 98.8 | 96.3 | 92.7 | 92.4 | 101 | 98.4 | 111 | 106 | 110 | 103 | 0 | 0 | 0 | 0 | 0
5 | CO/N=C(\C(=O)N[C@@H]1C(=O)N2C(C(=O)OCOC(=O)C(C)(C)C)=C(/C=C\c3scnc3C)CS[C@H]12)c1csc(N)n1 [cefditoren-pivoxil] | > 10 | > 10 | > 10 | > 10 | > 10 | 103 | 108 | 103 | 96.6 | 100 | 94.7 | 98.9 | 94.2 | 92.7 | 91.9 | 104 | 97.5 | 105 | 99.1 | 90.9 | 96.9 | 105 | 86.3 | 101 | 106 | 91 | 99.7 | 97.3 | 103 | 84.2 | 0 | 0 | 0 | 0 | 0.2
6 | CCCCCCCC/C=C\CCCCCCCC(=O)NCc1ccc(O)c(OC)c1 [olvanil] | > 10 | > 10 | > 10 | > 10 | > 10 | 102 | 98.1 | 95.8 | 95.9 | 91 | 102 | 101 | 95.5 | 103 | 101 | 97.2 | 100 | 98 | 94.3 | 100 | 100 | 95 | 101 | 118 | 94.4 | 96.3 | 97.2 | 104 | 94.3 | 96.5 | 0 | 0 | 0 | 0 | 0
7 | c1ccc(C(NCCNC(c2ccccc2)c2ccccc2)c2ccccc2)cc1 [AMN-082] | > 10 | > 10 | > 10 | > 10 | > 10 | 96.5 | 97.8 | 96.7 | 105 | 93.8 | 104 | 95 | 95 | 93.6 | 114 | 98.9 | 104 | 96.5 | 94.8 | 94.8 | 99 | 97.7 | 96.9 | 95.7 | 92.2 | 103 | 92.4 | 108 | 98.9 | 87.4 | 0 | 0 | 0 | 0 | 0.2
